Assay results: patent US6770740B1, “Crosslinked DNA condesate compositions and gene delivery methods” (The Regents of the University of Michigan, priority 1999, dated 2004)
Where a SMILES comes first, the peptide text is derived from it.

Key:
glutathione reductase = molecular target: T1, glutathione reductase (Homo sapiens, UniProt P00390); conditions: challenged with glutathione reductase; Drummer et al., 1987; cited from earlier work
T1 sequence (P00390 44-522): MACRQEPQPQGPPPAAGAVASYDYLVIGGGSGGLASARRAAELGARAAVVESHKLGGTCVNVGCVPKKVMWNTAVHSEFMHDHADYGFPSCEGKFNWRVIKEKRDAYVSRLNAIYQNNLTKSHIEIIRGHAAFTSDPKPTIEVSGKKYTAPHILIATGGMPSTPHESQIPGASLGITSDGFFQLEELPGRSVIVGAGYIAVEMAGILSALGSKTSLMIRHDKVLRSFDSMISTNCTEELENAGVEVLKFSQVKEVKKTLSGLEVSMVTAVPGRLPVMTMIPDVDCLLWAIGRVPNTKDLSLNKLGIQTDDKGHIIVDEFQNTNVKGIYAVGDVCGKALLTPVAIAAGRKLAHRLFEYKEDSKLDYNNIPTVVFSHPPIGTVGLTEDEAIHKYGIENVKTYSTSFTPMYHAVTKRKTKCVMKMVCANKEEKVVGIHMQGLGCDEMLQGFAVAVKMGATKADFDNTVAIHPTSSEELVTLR

[1] = Kinetics of peptide oxidation (disulfide bond formation) in solution by ES-MS; assay type: physicochemical; conditions: pH 7.5, free in solution
Method: The kinetics of disulfide bond formation in solution was monitored by […]. […] Single ion monitoring (SIM) scans were taken at 20 sec intervals over 2 h while monitoring the disappearance of the M+2H^+ parent ion (1258 amu) and formation of the M+2H^+ ion of the oxidized species (1256 amu).

plasmid DNA [2] = experiment: Kinetics of peptide cross-linking on DNA (SYBR-Gold fluorescence), Example 5; assay type: physicochemical; conditions: charge ratio 2:1
Method: The kinetics of cross-linking within peptide DNA condensates was studied indirectly by monitoring the displacement of SYBR-Gold™ intercalator dye from DNA condensates as a function of time. Peptide DNA condensates were prepared (200 μl of 50 μg/ml) at a peptide stoichiometry of 0.4 nmol per μg of DNA. Immediately after mixing peptide and DNA, a 10 μl aliquot was combined with 990 μl of SYBR-Gold™ (1X) and the fluorescence intensity (Ex 495 nm, Em 537 nm) was continuously monitored for 30 min.
The rate of cross-linking was also examined as a function of peptide concentration. The stoichiometry of peptide IV was increased from 0.4 to 1.2 nmol per μg of DNA and the rate of declining fluorescence intensity was determined as described above.

[3] = QELS particle size and zeta potential of cross-linking peptide DNA condensates, Example 5; assay type: physicochemical
Method: The particle size of each peptide DNA condensate was determined by quasielastic light scattering (QELS) at a scatter angle of both 15° and 90° on a Brookhaven ZetaPlus™ particle sizer. Condensates were prepared at a DNA concentration of 50 μg/ml in 400 μl HBM at a stoichiometry of 0.4 nmol of peptide per μg of DNA corresponding to a charge ratio of approximately 2:1 for each. The mean diameter and population distribution were computed from the diffusion coefficient using a unimodal cummulant analysis supplied by the manufacturer.
The particle size and zeta peptide IV DNA condensates were determined by titrating 7.5 to 37.5 nmol of peptide with 75 μg of DNA in 1.5 ml of HBM to produce 50 μg/ml DNA condensates with charge ratio of 0.5-2.5. The zeta potential was averaged from 10 determines.

[4] = Shear stress stability of cross-linked DNA condensates (salt sonication), Example 5; assay type: physicochemical
Method: Peptide DNA condensates (200 μl of 50 μg/ml) were formed and incubated at RT for 30 min and then combined with 0 to 200 μl of 5 M sodium chloride and normalized to 400 μl with HBM to achieve a final sodium chloride concentration of 0, 0.2, 0.4, 0.8, 1.0, 1.5, 2.0, and 2.5 M. Each sample was sonicated for 30 sec with a 100 W Microson™ XL-2000 ultrasonic probe homogenizer (Kontes, Vineland N.J.) with a vibrational amplitude of 6 to fragment uncondensed DNA (Adami et al., 1998). DNA condensates were digested with 30 μg of trypsin for 12 h at 37° C. then electrophoresed on an agarose gel and visualized by ethidium bromide staining.

plasmid DNA [5] = experiment: Thiazole orange displacement titration of peptide binding to DNA, Example 6; conditions: titration across charge ratios 0.25-8
Method: Peptide DNA condensates were prepared by combining 50 μg of DNA in 500 μl of Hepes buffered mannitol (HBM) (5 w/v% mannitol, 5 mM Hepes, pH 7.5) with […] of peptide in 500 μl of HBM while vortexing to form peptide DNA condensates with a calculated primary amine to phosphate charge ratio between 0.25 and 8.0 (NH4^+:PO4). The condensates were allowed to cross-link for 30 min prior to performing physical measurements. The binding of each peptide to DNA was assayed by combining peptide DNA condensates (50 μl) with 950 μl of HBM containing 0.1 μM thiazole orange. The fluorescence of the intercalated dye was measured using an LS50B fluorometer (Perkin Elmer, UK) by exciting at 500 nm while monitoring emission at 530 nm with the slit width set at 15 and 20 nm, respectively. Fluorescence blanks were substracted from all values before data analysis.

[6] = QELS particle size and zeta potential of peptide DNA condensates, Example 6; assay type: physicochemical; conditions: charge ratio 4:1, 50 μg/ml DNA in HBM; for Particle Size (nm): 90°, average and SD of three, No particles formed; for Zeta Potential (mV): average and SD of ten
Method: The particle size and zeta potential of peptide DNA condensates were determined by quasielastic light scattering (QELS) using a Brookhave ZetaPlus™. Particle size analysis was performed in triplicate at a DNA concentration of 50 μg/ml in HBM at a charge ratio of 4:1 and a scattering angle of 90°. Data analysis utilized a multimodal volume distribution option included with the instrument. Zeta potential was also determined using 50 μg/ml peptide DNA condensates prepared at a 4:1 charge ratio in HBM. The reported zeta potential was averaged from ten determinations.

CHO cells = experiment: Luciferase gene expression in CHO cells, Example 6; assay type: cell-based; conditions: 80 μM chloroquine
plasmid DNA [7] = experiment: Kinetics of peptide cross-linking on DNA (SYBR-Gold), Example 6; assay type: physicochemical; conditions: charge ratio 4:1
Method: The kinetics of disulfide bond formation of peptides bound to DNA was analyzed indirectly by monitoring the displacement of SYBR-Gold™ from DNA condensates. Peptide DNA condensates were formed by combining 20 μg of DNA in 500 μl of HBM containing 1× SYBR-Gold™ with 500 μl (26-52 nmol) of peptide in HBM containing 1 × SYBR-Gold to achieve a charge ratio of 4:1 (NH4^+:PO4). The fluorescence intensity (Ex 495 nm, Em 600 nm) was continuously monitored for 30 min to determine kinetics of cross-linking.

HepG2 cells = experiment: Luciferase gene expression in HepG2 cells, Example 6; assay type: cell-based; conditions: HepG2, absence of chloroquine
Method: HepG2 cells (1.5×10^5) were plated on 6×35 mm wells and grown to 50% confluencey in MEM supplemented with 10% FBS, penicillin and streptomycin (100 U/ml), sodium pyruvate (100 mM), and L-glutamine (2 mM). Transfections were performed in MEM (2 ml per 35 mm well) with 2% FBS with and without 80 μM chloroquine. Peptide DNA condensates (10 μg of DNA of 0.2 ml HBM) were added dropwise to triplicate wells. After a 5 h incubation at 37° C., the medium was replaced with MEM supplemented with 10% FBS. After 24 h, cells were washed with ice-cold phosphate buffered saline (calcium and magnesium free) and then treated with 0.5 ml of ice-cold lysis buffer (25 mM) Tris chloride pH 7.8, 1 mM EDTA, 8 mM magnesium chloride, 1% Triton X-100, 1 mM DTT) for 10 min. The cell lysates were scraped, transferred to 1.5 ml microcentrifuge tube, and centrifuged for 7 min at 13,000 g at 4° C. to pellet debris.
Lysis buffer (300 μl), sodium-ATP (4 μl of a 180 mM solution, pH 7, 4° C.) and cell lysate (100 μl, 4° C.) were combined in a test tube, briefly mixed and immediately placed in the luminometer. Luciferase relative light units (RLU) were recorded on a Lumat™ LB 9501 (Berthoid Systems, Germany) with 10 sec integration after automatic injection of 100 μl of 0.5 mM D-luciferin (prepared fresh in lysis buffer without DTT). The RLU were converted into fmol using a standard curve generated by adding a known amount of luciferase (0.01 to 100 fmols with specific activity of 2.5 nU/fmol) to 35 mm wells containing 50% confluent cells and lysis buffer. Protein concentrations were measured by Bradford assay using bovine serum albumin as a standard (Bradford, 1976). […]
LipofectAce™ (Gibco BRL, 1:2.5 w/w dimethyl dioctadecylammonium bromide and dioleoyl phosphatidylethanolamine) was used to mediate gene transaction according to the manufacturer's instructions. […] The cells were incubated for a total of 24 h, harvested and analyzed for luciferase as described above.

[8] = Shear stress stability (salt sonication assay), Example 6; assay type: physicochemical; conditions: 30 sec sonication
Method: The relative stability of peptide DNA condensates were examined using a salt sonication assay (Adami and Rice, 1999). Peptide DNA condensates (200 μl of 50 μg/ml) were formed as described above, incubated at RT for 30 min and then combined with 0-200 μl of 5 m […] and normalized to 400 μl with HBM to achieve a final sodium chloride concentration of 0, 0.2, 0.4, 0.8, 1.0, 1.5, 2.0 and 2.5 M. Each sample was sonicated for 30 sec with a 100 W Microson™ XL-2000 ultrasonic probe homogenizer (Kontes, Vineland N.J.) with a vibrational amplitude of 5 fragment uncondensed DNA. DNA condensates were digested with 30 μg to trypsin for 12 h at 37° C., electrophoresed on a 1% agarose gel electrophoresed in TEA buffer for 2 h, then visualized by ethidium bromide staining and destaining prior to photography on a transilluminator.

COS 7 cells = experiment: Luciferase gene expression in COS 7 cells, Example 6; assay type: cell-based; conditions: COS 7, 80 μM chloroquine

CC(C)(SSC(C)(C)C(N)C(=O)O)C(N)C(=O)O (stereo not shown) [Penicillamine disulfide]
stability relative to cystine (glutathione reductase): approximately 26 fold

NCCCC[C@H](NC(=O)[C@H](CCCCN)NC(=O)[C@H](CCCCN)NC(=O)[C@H](CCCCN)NC(=O)[C@H](CS)NC(=O)[C@H](CCCCN)NC(=O)[C@H](CCCCN)NC(=O)[C@H](CCCCN)NC(=O)[C@H](CS)NC(=O)[C@H](CCCCN)NC(=O)[C@H](CCCCN)NC(=O)[C@H](CCCCN)NC(=O)[C@H](CS)NC(=O)[C@H](CCCCN)NC(=O)[C@H](CCCCN)NC(=O)[C@H](CCCCN)NC(=O)[C@H](CCCCN)NC(=O)[C@H](Cc1c[nH]c2ccccc12)NC(=O)[C@@H](N)CS)C(=O)N[C@@H](CS)C(=O)O [V, Cys-Trp-Lys4-Cys-Lys3-Cys-Lys3-Cys-Lys4-Cys] (H-CWKKKKCKKKCKKKCKKKKC-OH; N-terminus and C-terminus assumed)
half-life at 100 µM ([1]; methanol/ammonium acetate solution, read-out: t½ of disappearance of the parent ion (intra-molecular disulfide formation)): ~10 min | time to complete disappearance of the parent ion [1]: ≤ 25 min | time of inter-peptide cross-linking on DNA (plasmid DNA [2]): less than 30 min | Particle Size Mean Diameter, Oxidized, 15° ([3]; HBM after 2 h incubation, 50 μg/ml DNA, 0.4 nmol peptide per μg DNA, scattering angle 15°): 41 nm | Particle Size Mean Diameter, Oxidized, 90° ([3]; HBM after 2 h incubation, 50 μg/ml DNA, 0.4 nmol peptide per μg DNA, scattering angle 90°): 57 nm | Particle Size Mean Diameter, Saline ([3]; HBM with added saline (0.15 M) after 15 min): 93 nm | Particle Size Mean Diameter, Reduced ([3]; following addition of TCEP (1 mM)): 171 nm | sodium chloride concentration of DNA condensate stability after reduction ([4]; DNA condensates reduced with TCEP): 0.4 M | sodium chloride concentration above which DNA was not protected, pre-oxidized peptide ([4]; peptide fully oxidized prior to making DNA condensates): 0.4 M

Cys-(Lys)4-Cys (CKKKKC) [Peptide 5]
charge ratio (NH4+:PO4) needed to condense DNA (thiazole orange fluorescence minimum) (plasmid DNA [5]): 3 | Particle Size (nm) [6]: 38 ± 10 nm | gene expression relative to peptide 3, 6 and 7 (CHO cells): three-orders of magnitude lower

Cys-(Lys)4-His-(Lys)3-Cys (CKKKKHKKKC) [Peptide 12]
time to completion of cross-linking on DNA (SYBR-Gold asymptote) (plasmid DNA [7]): less than 10 min | Particle Size (nm) [6]: 87 ± 20 nm | Zeta Potential (mV) [6]: 30 ± 2 mV | higher gene expression compared to peptide 7 DNA condensates (HepG2 cells): 3 fold

Cys-(Lys)8-Cys (CKKKKKKKKC) [Peptide 7]
charge ratio (NH4+:PO4) needed to condense DNA (thiazole orange fluorescence minimum) (plasmid DNA [5]): 2 | sodium chloride concentration at which DNA condensates dissociate [8]: 0.8 to 1 M | Particle Size (nm) [6]: 53 ± 16 nm | Zeta Potential (mV) [6]: 26 ± 2 mV | lower gene expression relative to peptide 3, 5 and 6 DNA condensates (COS 7 cells): 5 fold
